Measurements published in ChEMBL document CHEMBL2434878, “Synthesis and antimycobacterial activity of analogues of the bioactive natural products sampangine and cleistopholine” (Eur J Med Chem, 2013).
≈ marks a conversion by molar mass, not a printed value.

Tested on: Mycolicibacterium aurum
Test: Antimicrobial activity against Mycobacterium aurum A+
Assay type: functional

**Q.** `O=C1c2cccnc2-c2nccc3c2c1nc1ccccc13` [ASCIDIDEMIN] was tested. Which MIC did it give?
**A.** 0.25 µg/mL (≈ 0.882 µM)
